{"source": "patent US9888679B2", "about": "“Protection of progenitor cells and regulation of their differentiation” (Proteobioactives Pty Ltd, priority 2007, dated 2018)", "key": {"human progenitor cells [1]": {"test_system": "human progenitor cells", "experiment": "Proteoglycan biosynthesis (35S-GAG) in 2 day monolayer cultures", "format": "cell-based", "conditions": "monolayers; FIG. 11", "from_the_text": "FIG. 11. A bar graph of the concentration dependent effects of Pentosan Polysulfate (PPS), on the biosynthesis of Proteoglycans (PGs) as determined by the incorporation of radioactively labelled sulfate into the sulfated glycosaminoglycans (^35S-GAG) of PGs after 2 day monolayer cultures of human progenitor cells. The data was expressed as ^35S-GAG radioactivity as decays per minute (DPM) normalised to DNA content. *=p<0.05; **=p<0.005; ***=p<0.0005.\nMurine Progenitor cells (cell lines C3H10T1/2 or ATDC5) purchased from RIKEN Cell Bank (Tsukuba, Japan) or human immunoselected Stro-1+ Progenitor cells (Mesoblast Ltd, Melbourne, Australia) were seeded into 50 mL plastic culture flasks containing 1:1 high glucose DMEM/Ham's F-12 medium (Invitrogen) supplemented with 10% FBS (Sigma) and incubated at 37° C., in 5% CO2. After confluence was reached, progenitor cells were released by trypsinization and harvested by centrifugation. Cells were inoculated to 96-well or 24-well plates at a density of 3×10^4 cells or 2×10^5 cells per well. […] The experiments were generally terminated after 48 hours incubation when proteoglycan biosynthesis was determined by measuring the incorporation of ^35SO4 into the glycosaminoglycans (^35S-GAGs) as described below.\nThe data was expressed as ^35S-GAG radioactivity as decays per minute (DPM) normalised to DNA content. *=p<0.05; **=p<0.005; ***=p<0.0005."}, "human progenitor cells [2]": {"test_system": "human progenitor cells", "experiment": "Proteoglycan synthesis in micromass cultures, 5 days", "format": "cell-based", "conditions": "FIG. 17", "from_the_text": "FIG. 17. Bar graphs showing the concentration dependent effects of PPS on proteoglycan synthesis by human progenitor cells in micromass cultures for 5 days. Data is presented as 35S-GAG radioactivity and as a percentage of control taken as 100%. * P<0.05 relative to control.\nFIG. 19. Bar graphs showing the concentration dependent effects of (A) Hyaluronan (Supartz™) and (B) Dextran Polysulfate on proteoglycan synthesis by human progenitor cells in micromass cultures for 5 days. Data is presented as ^35S-GAG radioactivity and as a percentage of control, taken as 100% or as DPM/ug DNA. * P<0.05 relative to control.\nThe technique used was based on that described by (Denker A E, Haas A R, Nicoll S B and Tuan R S. Chondrogenic differentiation of murine C3H10T1/2 multipotential progenitor cells: I. Stimulation by bone morphogenetic protein-2 in high density micromass cultures. Differentiation (1999); 64: 67-76). Briefly murine Progenitor cells (cell lines C3H10T1/2 or ATDC5) purchased from RIKEN Cell Bank (Tsukuba, Japan) or human immunoselected Stro-1+ Progenitor cells (Mesoblast Ltd, Melbourne, Australia) Ten microlitres (10 μl) of a suspension of the progenitor cells (1×10^7 cells/ml in Ham's F12 medium+10% FBS) were applied to individual wells of a 24-well plates. After incubatation at 37° C. in a humidified atmosphere of 5% CO2/95% air for 2-3 hours, 900 μl of Ham's F12 medium (10% FBS) and 100 μl of PPS solution in the same medium were added slowly into the wells to afford final concentrations of PPS in each of 0, 0.1, 0.5, 1.0, 2.5, 5.0, 10.0, 20.0 μg/ml alone or in combination with rhNC4 (0, 0.1, 0.5, 1.0, 2.5, 5.0, 10.0, 25.0 μg/ml). Each drug concentration was repeated in triplicate. The cells were maintained in culture for up to 10 days. The medium with/without drugs was changed every 3 days but 24 hours before termination of the experiment 80 μl of 50 μCi/ml ^35S-H2SO4 was added to achieve a final ^35SO4 concentration of 5 μCi/ml. The following day, the cells in one of the plates were trypsinized with 150 μl/well of 2.5% trypsin and separated from the medium by centrifugation at 800 g for 10 minutes, washed with 500 μl of 1×PBS and stored in liquid nitrogen for RNA and/or DNA extraction and analysis. Media and supernatants were combined in one tube for each concentration of PPS used. To the tubes was added, 200 μl of 5× Papain solution [2.5 mg/ml Papain, 7.9 mg/ml L-Cysteine in Papain buffer (0.1 M NaAC, 5 mM EDTA, pH6.0)] and the solution incubated at 65° C. for 2 hours. After papain digestion, Four aliquots of 200 μl of digested solution were transferred to a 96-well plate (200 μl/well). The ^35S-GAG released by the digestion step were separated from the free ^35SO4 by adding 20 μl 5% CPC and 10 μl 1 mg/ml CSA with gentle shaking at 300 rpm RT for 20-30 min to precipitate the ^35S-GAG-CPC complexes. The precipitates were collected by filtered through glass fibre filters using a cell harvester. The filters were then air-dried and discs punched to scintillation vials. 3 ml/vial scintillation cocktail liquid was added and vortexed for 30-45 sec. The radioactivity of ^35S—SO4 incorporated the ^35S-GAG-CPC complexes was measured by scintillation counting.\nData is presented as 35S-GAG radioactivity and as a percentage of control taken as 100%. * P<0.05 relative to control.\nSimilar experiments were undertaken using Hyaluronic acid (SuperArtz (SKK, Tokyo, Japan)) and Dextran polysulfate (MW=5000) (Sigma, Sydney, Australia) in place of PPS. […] Data is presented as 35S-GAG radioactivity and as a percentage of control taken as 100% or as DPM/ug DNA. * P<0.05 relative to control."}}, "data": [{"substance": "pentosan polysulfate [PPS]", "values": [{"measurement": "chondrogenic effect (proteoglycan synthesis)", "setting": "human progenitor cells [1]", "value": "chondrogenic promoting effect"}, {"measurement": "maximum stimulation of PG synthesis", "setting": "human progenitor cells [2]; 2.5 micrograms/mL, 5 day micromass cultures", "value": 30, "unit": "%"}, {"measurement": "proteoglycan synthesis", "setting": "human progenitor cells [2]; PPS 0.5-10 μg/ml, 5 day micromass", "value": "Increased proteoglycan synthesis"}]}]}
